{
  "source": "patent US20230045421A1",
  "about": "(priority 2018, published 2023)",
  "data": [
    {"tested_on": "HBV rcDNA", "assay": "HepDE19 assay with bDNA quantitation of HBV rcDNA", "type": "cell-based, hepatitis B virus", "details": "HepDE19 assay, inhibition of formation of rcDNA; read-out: DE-19bDNA EC50", "summary_of_the_method": "(§1)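 Compounds, top concentration 25 μM in 8-point duplicate series, were applied to Tet-free HepDE19 cultures for 7 days. Branched-DNA quantitation of HBV rcDNA against untreated wells gave EC50 and EC90 by 4-parameter fit. Viability (CC50) came from ATP luminescence on parallel plates incubated 4 days.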", "units": {"EC50": "µM"}, "values": [
      {"molecule": "CC(c1c[nH]c(=O)c2ccccc12)N(CC1COC(C)(C)OC1)C(=O)Nc1ccc(F)c(Cl)c1", "note": "(single isomer, unassigned) [Compound 272, 3-(3-Chloro-4-fluorophenyl)-1-((2,2-dimethyl-1,3-dioxan-5-yl)methyl)-1-(1-(1-oxo-1,2-dihydroisoquinolin-4-yl)ethyl)urea]", "EC50": 1.8},
      {"molecule": "CC(c1c[nH]c(=O)c2ccccc12)N(CC1COC(C)(C)OC1)C(=O)Nc1ccc(F)c(Cl)c1", "note": "(single isomer, unassigned) [Compound 273, 3-(3-Chloro-4-fluorophenyl)-1-((2,2-dimethyl-1,3-dioxan-5-yl)methyl)-1-(1-(1-oxo-1,2-dihydroisoquinolin-4-yl)ethyl)urea]", "EC50": 0.17},
      {"molecule": "CC(c1cn(Cc2c[nH]nn2)c(=O)c2ccccc12)N(C)C(=O)Nc1ccc(F)c(Cl)c1", "note": "(single isomer, unassigned) [Compound 276, 1-(1-(2-((1H-1,2,3-Triazol-4-yl)methyl)-1-oxo-1,2-dihydroisoquinolin-4-yl)ethyl)-3-(3-chloro-4-fluorophenyl)-1-methylurea]", "EC50": 2.7},
      {"molecule": "CC(c1cn(Cc2c[nH]nn2)c(=O)c2ccccc12)N(C)C(=O)Nc1ccc(F)c(Cl)c1", "note": "(single isomer, unassigned) [Compound 277, 1-(1-(2-((1H-1,2,3-Triazol-4-yl)methyl)-1-oxo-1,2-dihydroisoquinolin-4-yl)ethyl)-3-(3-chloro-4-fluorophenyl)-1-methylurea]", "EC50": 0.79}
    ]},
    {"tested_on": "HBV rcDNA", "assay": "HepDE19 assay with bDNA quantitation of HBV rcDNA", "type": "cell-based, hepatitis B virus", "details": "HepDE19 assay, inhibition of formation of relaxed circular DNA (rcDNA), bDNA quantitation; read-out: DE-19bDNA EC50", "summary_of_the_method": "as §1", "units": {"EC50": "µM"}, "values": [
      {"molecule": "CC(c1c[nH]c(=O)c2ccc(F)cc12)N(CC1COC(C)(C)OC1)C(=O)Nc1ccc(F)c(Cl)c1", "note": "(single isomer, unassigned) [Compound 282, 3-(3-Chloro-4-fluorophenyl)-1-((2,2-dimethyl-1,3-dioxan-5-yl)methyl)-1-(1-(6-fluoro-1-oxo-1,2-dihydroisoquinolin-4-yl)ethyl)urea]", "EC50": 4},
      {"molecule": "CC(c1c[nH]c(=O)c2ccc(F)cc12)N(CC1COC(C)(C)OC1)C(=O)Nc1ccc(F)c(Cl)c1", "note": "(single isomer, unassigned) [Compound 283, 3-(3-Chloro-4-fluorophenyl)-1-((2,2-dimethyl-1,3-dioxan-5-yl)methyl)-1-(1-(6-fluoro-1-oxo-1,2-dihydroisoquinolin-4-yl)ethyl)urea]", "EC50": 0.043},
      {"molecule": "CC(c1c[nH]c(=O)c2cc(F)c(F)cc12)N(C)C(=O)Nc1ccc(F)cc1", "note": "(single isomer, unassigned) [Compound 285, 1-(1-(6,7-Difluoro-1-oxo-1,2-dihydroisoquinolin-4-yl)ethyl)-3-(4-fluorophenyl)-1-methylurea]", "EC50": 4.3},
      {"molecule": "CC(c1c[nH]c(=O)c2cc(F)c(F)cc12)N(C)C(=O)Nc1ccc(F)cc1", "note": "(single isomer, unassigned) [Compound 286, 1-(1-(6,7-Difluoro-1-oxo-1,2-dihydroisoquinolin-4-yl)ethyl)-3-(4-fluorophenyl)-1-methylurea]", "EC50": 0.02},
      {"molecule": "CC(C)CN(C(=O)Nc1ccc(F)cc1)C(C)c1c[nH]c(=O)c2cc(F)c(F)cc12", "note": "(single isomer, unassigned) [Compound 287, 1-(1-(6,7-Difluoro-1-oxo-1,2-dihydroisoquinolin-4-yl)ethyl)-3-(4-fluorophenyl)-1-isobutylurea]", "EC50": 1.5},
      {"molecule": "CC(C)CN(C(=O)Nc1ccc(F)cc1)C(C)c1c[nH]c(=O)c2cc(F)c(F)cc12", "note": "(single isomer, unassigned) [Compound 288, 1-(1-(6,7-Difluoro-1-oxo-1,2-dihydroisoquinolin-4-yl)ethyl)-3-(4-fluorophenyl)-1-isobutylurea]", "EC50": 0.004},
      {"molecule": "CC(c1c[nH]c(=O)c2cc(F)c(F)cc12)N(CCCO)C(=O)Nc1ccc(F)c(Cl)c1", "note": "(single isomer, unassigned) [Compound 289, 3-(3-Chloro-4-fluorophenyl)-1-(1-(6,7-difluoro-1-oxo-1,2-dihydroisoquinolin-4-yl)ethyl)-1-(3-hydroxypropyl)urea]", "EC50": 0.37},
      {"molecule": "CC(c1c[nH]c(=O)c2cc(F)c(F)cc12)N(CCCO)C(=O)Nc1ccc(F)c(Cl)c1", "note": "(single isomer, unassigned) [Compound 290, 3-(3-Chloro-4-fluorophenyl)-1-(1-(6,7-difluoro-1-oxo-1,2-dihydroisoquinolin-4-yl)ethyl)-1-(3-hydroxypropyl)urea]", "EC50": 0.002},
      {"molecule": "CC(c1c[nH]c(=O)c2cc(F)c(F)cc12)N(CCCO)C(=O)Nc1ccc(F)cc1", "note": "(single isomer, unassigned) [Compound 291, 1-(1-(6,7-Difluoro-1-oxo-1,2-dihydroisoquinolin-4-yl)ethyl)-3-(4-fluorophenyl)-1-(3-hydroxypropyl) urea]", "EC50": 4.6},
      {"molecule": "CC(c1c[nH]c(=O)c2cc(F)c(F)cc12)N(CCCO)C(=O)Nc1ccc(F)cc1", "note": "(single isomer, unassigned) [Compound 292, 1-(1-(6,7-Difluoro-1-oxo-1,2-dihydroisoquinolin-4-yl)ethyl)-3-(4-fluorophenyl)-1-(3-hydroxypropyl) urea]", "EC50": 0.01},
      {"molecule": "CC(c1c[nH]c(=O)c2ccc(F)cc12)N(CC(CO)CO)C(=O)Nc1ccc(F)c(Cl)c1", "note": "(single isomer, unassigned) [Compound 295, 3-(3-Chloro-4-fluorophenyl)-1-(1-(6-fluoro-1-oxo-1,2-dihydroisoquinolin-4-yl)ethyl)-1-(3-hydroxy-2-(hydroxymethyl)propyl)urea]", "EC50": 1.9},
      {"molecule": "CC(c1c[nH]c(=O)c2ccc(F)cc12)N(CC(CO)CO)C(=O)Nc1ccc(F)c(Cl)c1", "note": "(single isomer, unassigned) [Compound 296, 3-(3-Chloro-4-fluorophenyl)-1-(1-(6-fluoro-1-oxo-1,2-dihydroisoquinolin-4-yl)ethyl)-1-(3-hydroxy-2-(hydroxymethyl)propyl)urea]", "EC50": 0.04},
      {"molecule": "CC(c1cn(C)c(=O)c2cc(F)ccc12)N(C)C(=O)Nc1ccc(F)c(Cl)c1", "note": "(single isomer, unassigned) [Compound 302, 3-(3-Chloro-4-fluorophenyl)-1-(1-(7-fluoro-2-methyl-1-oxo-1,2-dihydroisoquinolin-4-yl)ethyl)-1-methylurea]", "EC50": 3.3},
      {"molecule": "CC(c1cn(C)c(=O)c2cc(F)ccc12)N(C)C(=O)Nc1ccc(F)c(Cl)c1", "note": "(single isomer, unassigned) [Compound 303, 3-(3-Chloro-4-fluorophenyl)-1-(1-(7-fluoro-2-methyl-1-oxo-1,2-dihydroisoquinolin-4-yl)ethyl)-1-methylurea]", "EC50": 0.02},
      {"molecule": "CC(c1c[nH]c(=O)c2ccccc12)N(Cc1ccccn1)C(=O)Nc1ccc(F)c(Cl)c1", "note": "(single isomer, unassigned) [Compound 304, 3-(3-Chloro-4-fluorophenyl)-1-(1-(1-oxo-1,2-dihydroisoquinolin-4-yl)ethyl)-1-(pyridin-2-ylmethyl) urea]", "EC50": 9.6}
    ]},
    {"tested_on": "HBV rcDNA", "assay": "HepDE19 assay with bDNA quantitation of HBV rcDNA", "type": "cell-based, hepatitis B virus", "details": "Hepatitis B virus, HepDE19, HepDE19 assay, inhibition of formation of rcDNA; read-out: DE-19bDNA EC50", "summary_of_the_method": "as §1", "units": {"EC50": "µM"}, "values": [
      {"molecule": "CC(c1c[nH]c(=O)c2ccccc12)N(CC1COC(C)(C)OC1)C(=O)Nc1ccc(F)cc1", "note": "(single isomer, unassigned) [Compound 274, 3-(4-Fluorophenyl)-1-((2,2-dimethyl-1,3-dioxan-5-yl)methyl)-1-(1-(1-oxo-1,2-dihydroisoquinolin-4-yl)ethyl)urea]", "EC50": 1.8},
      {"molecule": "CC(c1c[nH]c(=O)c2cc(F)c(F)cc12)N(C)C(=O)Nc1ccc(F)c(Cl)c1", "note": "(single isomer, unassigned) [Compound 278, 3-(3-Chloro-4-fluorophenyl)-1-(1-(6,7-difluoro-1-oxo-1,2-dihydroisoquinolin-4-yl)ethyl)-1-methylurea]", "EC50": 1},
      {"molecule": "CC(C)CN(C(=O)Nc1ccc(F)c(Cl)c1)C(C)c1c[nH]c(=O)c2cc(F)c(F)cc12", "note": "(single isomer, unassigned) [Compound 280, 3-(3-Chloro-4-fluorophenyl)-1-(1-(6,7-difluoro-1-oxo-1,2-dihydroisoquinolin-4-yl)ethyl)-1-isobutylurea]", "EC50": 0.21}
    ]},
    {"tested_on": "HBV rcDNA", "assay": "HepDE19 assay with bDNA quantitation of HBV rcDNA", "type": "cell-based, hepatitis B virus", "details": "Hepatitis B virus, HepDE19, HepDE19 assay, inhibition of formation of relaxed circular DNA (rcDNA), bDNA quantitation; read-out: DE-19bDNA EC50", "summary_of_the_method": "as §1", "units": {"EC50": "µM"}, "values": [
      {"molecule": "CC(C)CN(C(=O)Nc1ccc(F)c(Cl)c1)C(C)c1c[nH]c(=O)c2cc(F)c(F)cc12", "note": "(single isomer, unassigned) [Compound 281, 3-(3-Chloro-4-fluorophenyl)-1-(1-(6,7-difluoro-1-oxo-1,2-dihydroisoquinolin-4-yl)ethyl)-1-isobutylurea]", "EC50": 0.002},
      {"molecule": "CC(c1c[nH]c(=O)c2ccccc12)N(CC(CO)CO)C(=O)Nc1ccc(F)c(Cl)c1", "note": "(single isomer, unassigned) [Compound 284, 3-(3-Chloro-4-fluorophenyl)-1-(3-hydroxy-2-(hydroxymethyl)propyl)-1-(1-(1-oxo-1,2-dihydroisoquinolin-4-yl)ethyl)urea]", "EC50": 0.092},
      {"molecule": "CNC(=O)N(C)C(C)c1c[nH]c(=O)c2ccccc12", "note": "(single isomer, unassigned) [Compound 298, 1,3-Dimethyl-1-(1-(1-oxo-1,2-dihydroisoquinolin-4-yl)ethyl)urea]", "EC50": 24},
      {"molecule": "CC(c1c[nH]c(=O)c2ccccc12)N(C)C(=O)NC1CCCC1", "note": "(single isomer, unassigned) [Compound 299, 3-Cyclopentyl-1-methyl-1-(1-(1-oxo-1,2-dihydroisoquinolin-4-yl)ethyl)urea]", "EC50": 8.6}
    ]},
    {"tested_on": "HBV rcDNA", "assay": "HepDE19 assay with bDNA quantitation of HBV rcDNA", "type": "cell-based, hepatitis B virus", "details": "Hepatitis B virus, HepDE19, read-out: DE-19bDNA EC50 (μM), HepDE19 assay, inhibition of formation of rcDNA", "summary_of_the_method": "as §1", "units": {"EC50": "µM"}, "values": [
      {"molecule": "CC(c1c[nH]c(=O)c2ccccc12)N(CC1COC(C)(C)OC1)C(=O)Nc1ccccc1", "note": "(single isomer, unassigned) [Compound 275, 1-((2,2-Dimethyl-1,3-dioxan-5-yl)methyl)-1-(1-(1-oxo-1,2-dihydroisoquinolin-4-yl)ethyl)-3-phenylurea]", "EC50": 0.83}
    ]},
    {"tested_on": "HBV rcDNA", "assay": "HepDE19 assay with bDNA quantitation of HBV rcDNA", "type": "cell-based, hepatitis B virus", "details": "read-out: DE-19bDNA EC50; HepDE19 assay, inhibition of formation of rcDNA", "summary_of_the_method": "as §1", "units": {"EC50": "µM"}, "values": [
      {"molecule": "CC(c1c[nH]c(=O)c2cc(F)c(F)cc12)N(C)C(=O)Nc1ccc(F)c(Cl)c1", "note": "(single isomer, unassigned) [Compound 279, 3-(3-Chloro-4-fluorophenyl)-1-(1-(6,7-difluoro-1-oxo-1,2-dihydroisoquinolin-4-yl)ethyl)-1-methylurea]", "EC50": 0.007}
    ]}
  ]
}
